One assay addresses PBK (Homo sapiens (Human), UniProt Q96KB5). In words: Kinase assay (IMAP fluorescence polarization, FITC-labeled histone H3 peptide). The class given is biochemical. As to the method: PBK activity was determined in the presence or absence of compounds using fluorescein isothiocyanate-labeled (FITC-labeled) histone H3 peptide as a substrate. […] The serially diluted compounds, 0.8 ng/micro-L PBK (Carna Biosciences) and 100 nM FITC-labeled histone H3 peptide were reacted in a reaction buffer (20 mM HEPES, 0.01% Tween-20, 0.3 mM MgCl2, 2 mM dithiothreitol, 50 micro-M ATP, pH 7.4) at room temperature for 1 hour. The reaction was stopped by the addition of three fold assay volume of progressive binding solution. […] IC50 values were calculated by nonlinear four parameter fit using SigmaPlot, version 10.0 (Systat Software, Inc.).
Background: Polarisation of emitted light reports the rotation of a fluorescent probe.

Another assay concerns A549 cells. In words: Cell-based assay, cellular growth (Cell Counting Kit-8, 72 hours). The protocol:
(§1) 100 micro-L of cell suspension was seeded onto 96-well microtiter plate (ViewPlate-96FTC, PerkinElmer). […] Cellular growth was determined using Cell Counting Kit-8 (DOJINDO) at 72 hours after the exposure of the candidate inhibitors. […] Accurate IC50 values were calculated as described previously.
A general note: Tetrazolium dyes change colour on reduction, which living cells bring about.

The test system of the next assay is BT-549 cells. The assay is described as above. To be noted: Homo sapiens, BT549 cells. The protocol:
as §1

A further assay deals with T47D cells. The description is as above. The protocol:
as §1

In another assay the test system is HT-1197 cells. As to the kind of experiment: Cell-based assay, cellular growth (Cell Counting Kit-8, 72 hours), PBK-negative control cells. The protocol:
as §1

Where [1] appears, read: PBK 0.8 ng/micro-L, 50 micro-M ATP, 100 nM FITC-labeled histone H3 peptide, room temperature 1 hour.

Where a name gives a salt, the structure may show the parent alone. Read-outs that look alike come from different tables or passages of the source.

Sequence of PBK (Q96KB5 whole entry): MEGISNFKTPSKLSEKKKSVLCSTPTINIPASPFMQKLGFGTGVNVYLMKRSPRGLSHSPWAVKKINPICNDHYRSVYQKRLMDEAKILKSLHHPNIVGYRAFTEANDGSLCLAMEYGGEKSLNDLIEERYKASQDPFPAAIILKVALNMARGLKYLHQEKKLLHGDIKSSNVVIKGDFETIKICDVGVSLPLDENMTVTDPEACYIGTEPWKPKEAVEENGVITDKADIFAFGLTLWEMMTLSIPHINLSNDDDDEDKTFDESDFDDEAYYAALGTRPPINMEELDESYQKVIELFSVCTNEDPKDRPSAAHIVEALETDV

One may read the IC50 as the concentration needed to halve the response being measured. Low values mean higher potency, high ones lower potency. With `CC(C)C(CN)c1ccc(-c2c(O)ccc3[nH]c(=O)c4sccc4c23)cc1` (stereo not shown) [Compound 1252, 9-(4-(1-amino-3-methylbutan-2-yl)phenyl)-8-hydroxythieno[2,3-c]quinolin-4(5H)-one], the IC50 against PBK (setting [1]) came out at 0.0014 µM; in the assay with A549 cells (Homo sapiens, A549, 72 h) it was 0.16 µM; with BT-549 cells, 0.25 µM; in the assay on T47D cells (Homo sapiens, T47D, 72 h), 0.21 µM; in the assay with HT-1197 cells (Homo sapiens, HT1197, 72 h) it was 0.42 µM.
`C[C@H](c1ccc(-c2c(O)cc(Cl)c3[nH]c(=O)c4sccc4c23)cc1)N(C)C` [Compound 1126, (R)-6-chloro-9-(4-(1-(dimethylamino)ethyl)phenyl)-8-hydroxythieno [2,3-c]quinolin-4(5H)-one hydrochloride]: the IC50 came to 0.042 µM at PBK (setting [1]); 0.11 µM in the assay with A549 cells (Homo sapiens, A549, 72 h); 0.14 µM with BT-549 cells; 0.29 µM in the assay with T47D cells (Homo sapiens, T47D, 72 h); 0.32 µM with HT-1197 cells (Homo sapiens, HT1197, 72 h).
The like results for `CC(CCl)NS(=O)(=O)c1ccc(-c2c(O)ccc3[nH]c(=O)c4sccc4c23)cc1` (stereo not shown) [Compound 1204, N-(1-chloropropan-2-yl)-4-(8-hydroxy-4-oxo-4,5-dihydrothieno[2,3-c]quinolin-9-yl)benzenesulfonamide] were, in that order, 0.015 µM, 0.71 µM, 0.16 µM, 1.9 µM and 15 µM.
As to `Cc1cc(O)c(-c2ccc(CCN)c(F)c2)c2c1[nH]c(=O)c1sccc12` [Compound 1217, 9-(4-(2-aminoethyl)-3-fluorophenyl)-8-hydroxy-6-methylthieno[2,3-c]quinolin-4(5H)-one hydrochloride], the IC50 at PBK (setting [1]) was 0.0047 µM; in the assay with A549 cells (Homo sapiens, A549, 72 h), 0.14 µM; in the assay on BT-549 cells it was 0.065 µM; in the assay on T47D cells (Homo sapiens, T47D, 72 h) it was 0.084 µM; in the assay on HT-1197 cells (Homo sapiens, HT1197, 72 h), 0.48 µM.
For `Cc1cc(O)c(-c2ccc(C(C)CN)c(F)c2)c2c1[nH]c(=O)c1sccc12` (stereo not shown) [Compound 1190, 9-(4-(1-aminopropan-2-yl)-3-fluorophenyl)-8-hydroxy-6-methylthieno[2,3-c]quinolin-4(5H)-one hydrochloride], in that order: 0.0051 µM, 0.021 µM, 0.015 µM, 0.019 µM and 0.11 µM.
The like results for `CN[C@H](C)c1ccc(-c2c(O)cc(Cl)c3[nH]c(=O)c4sccc4c23)cc1` [Compound 1132, (R)-6-chloro-8-hydroxy-9-(4-(1-(methylamino)ethyl)phenyl)thieno[2,3-c]quinolin-4(5H)-one hydrochloride] were, in that order, 0.014 µM, 0.09 µM, 0.097 µM, 0.19 µM and 0.32 µM.
For `CC(CN)c1ccc(-c2c(O)cc(Cl)c3[nH]c(=O)c4sccc4c23)cc1` (stereo not shown) [Compound 1136, 9-(4-(1-aminopropan-2-yl)phenyl)-6-chloro-8-hydroxythieno[2,3-c]quinolin-4(5H)-one hydrochloride], the IC50 turned out to be 0.0086 µM on PBK (setting [1]); 0.035 µM in the assay with A549 cells (Homo sapiens, A549, 72 h); 0.032 µM in the assay on BT-549 cells; 0.057 µM in the assay with T47D cells (Homo sapiens, T47D, 72 h); 0.18 µM in the assay with HT-1197 cells (Homo sapiens, HT1197, 72 h).
The like results for `NCCc1ccc(-c2c(O)cc(Cl)c3[nH]c(=O)c4sccc4c23)cc1F` [Compound 1219, 9-(4-(2-aminoethyl)-3-fluorophenyl)-6-chloro-8-hydroxythieno[2,3-c]quinolin-4(5H)-one hydrochloride] were, in that order, 0.0055 µM, 0.17 µM, 0.1 µM, 0.18 µM and 0.88 µM.
With `Cc1cc(O)c(-c2ccc(C(C)CN(C)C)c(F)c2)c2c1[nH]c(=O)c1sccc12` (stereo not shown) [Compound 1193, 9-(4-(1-(dimethylamino)propan-2-yl)-3-fluorophenyl)-8-hydroxy-6-methylthieno[2,3-c]quinolin-4(5H)-one hydrochloride], the IC50 worked out at 0.046 µM against PBK; 0.13 µM with A549 cells (Homo sapiens, A549, 72 h); 0.14 µM in the assay on BT-549 cells; 0.24 µM in the assay with T47D cells (Homo sapiens, T47D, 72 h); 0.33 µM with HT-1197 cells (Homo sapiens, HT1197, 72 h).
Take `Cc1cc(O)c(-c2ccc(C3CCCNC3)cc2)c2c1[nH]c(=O)c1sccc12` (stereo not shown) [Compound 1302, 8-hydroxy-6-methyl-9-(4-(piperidin-3-yl)phenyl)thieno[2,3-c]quinolin-4(5H)-one hydrochloride]: the IC50 turned out to be 0.075 µM against PBK (setting [1]); 0.97 µM in the assay with A549 cells (Homo sapiens, A549, 72 h); 0.74 µM in the assay on BT-549 cells; 0.83 µM in the assay with T47D cells (Homo sapiens, T47D, 72 h); 1.5 µM in the assay on HT-1197 cells (Homo sapiens, HT1197, 72 h).
In the case of `C[C@@H](CN(C)C)c1ccc(-c2c(O)ccc3[nH]c(=O)c4sccc4c23)cc1` [Compound 1188, (R)-9-(4-(1-(dimethylamino)propan-2-yl)phenyl)-8-hydroxythieno[2,3-c]quinolin-4(5H)-one hydrochloride], the IC50 is 0.0025 µM against PBK; 0.16 µM with A549 cells (Homo sapiens); 0.16 µM in the assay on BT-549 cells; 0.29 µM in the assay on T47D cells (Homo sapiens); 0.43 µM with HT-1197 cells (Homo sapiens, HT1197 cells (PBK-negative control)).
For the compound `COc1cc(C)c2[nH]c(=O)c3sccc3c2c1-c1ccc(C(CN)C(C)C)c(F)c1` (stereo not shown) [Compound 1283, 9-(4-(1-amino-3-methylbutan-2-yl)-3-fluorophenyl)-8-methoxy-6-methylthieno[2,3-c]quinolin-4(5H)-one hydrochloride], the half-maximal inhibitory concentration (IC50) came out at 0.047 µM at PBK (setting [1]); 0.56 µM in the assay on A549 cells (Homo sapiens, A549, 72 h); 0.25 µM with BT-549 cells; 0.56 µM with T47D cells (Homo sapiens, T47D, 72 h); 0.53 µM in the assay on HT-1197 cells (Homo sapiens, HT1197, 72 h).
Regarding `Cc1cc(O)c(-c2ccc(C(CN)C(C)C)c(F)c2)c2c1[nH]c(=O)c1sccc12` (stereo not shown) [Compound 1288, 9-(4-(1-amino-3-methylbutan-2-yl)-3-fluorophenyl)-8-hydroxy-6-methylthieno[2,3-c]quinolin-4(5H)-one], the IC50 was determined as 0.02 µM against PBK (setting [1]); 0.11 µM in the assay with A549 cells (Homo sapiens, A549, 72 h); 0.047 µM in the assay on BT-549 cells; 0.074 µM in the assay on T47D cells (Homo sapiens, T47D, 72 h); 0.14 µM with HT-1197 cells (Homo sapiens, HT1197, 72 h).
For the compound `CNC[C@H](C)c1ccc(-c2c(O)cc(C)c3[nH]c(=O)c4sccc4c23)cc1` [Compound 1307, (R)-8-hydroxy-6-methyl-9-(4-(1-(methylamino)propan-2-yl)phenyl)thieno [2,3-c]quinolin-4(5H)-one hydrobromide], the IC50 at PBK (PBK 0.8 ng/micro-L, 50 micro-M ATP, 100 nM FITC-labeled histone H3 peptide, room temperature 1 hour, hydrobromide) came out at 0.018 µM; in the assay with A549 cells (hydrobromide), 0.057 µM; in the assay on BT-549 cells, 0.042 µM; in the assay on T47D cells (hydrobromide), 0.085 µM; in the assay with HT-1197 cells (HT1197 cells (PBK-negative control), hydrobromide), 0.15 µM.
In the case of `Cc1cc(O)c(-c2ccc([C@@H](C)CN(C)C)c(F)c2)c2c1[nH]c(=O)c1sccc12` [Compound 1311, (R)-9-(4-(1-(dimethylamino)propan-2-yl)-3-fluorophenyl)-8-hydroxy-6-methylthieno[2,3-c]quinolin-4(5H)-one hydrochloride], the IC50 at PBK was 0.017 µM; in the assay with A549 cells (Homo sapiens, A549, 72 h), 0.045 µM; with BT-549 cells, 0.037 µM; with T47D cells (Homo sapiens, T47D, 72 h) it was 0.07 µM; in the assay with HT-1197 cells (Homo sapiens, HT1197, 72 h), 0.11 µM.
The like results for `CNC[C@H](C)c1ccc(-c2c(OC)cc(C)c3[nH]c(=O)c4sccc4c23)cc1F` [Compound 1316, (R)-9-(3-fluoro-4-(1-(methylamino)propan-2-yl)phenyl)-8-methoxy-6-methylthieno[2,3-c]quinolin-4(5H)-one hydrochloride] were, in that order, 0.033 µM, 0.086 µM, 0.083 µM, 0.16 µM and 0.23 µM.
As for `Cc1cc(O)c(-c2ccc(CCN)cc2)c2c1[nH]c(=O)c1sccc12` [Compound 1191, 9-(4-(2-aminoethyl)phenyl)-8-hydroxy-6-methylthieno[2,3-c]quinolin-4(5H)-one hydrochloride], the IC50 on PBK (setting [1]) turned out to be 0.019 µM; with A549 cells (Homo sapiens, A549, 72 h), 0.12 µM; in the assay on BT-549 cells, 0.064 µM; with T47D cells (Homo sapiens, T47D, 72 h), 0.073 µM; with HT-1197 cells (Homo sapiens, HT1197, 72 h), 0.48 µM.
For `CNCC(c1ccc(-c2c(O)cc(C)c3[nH]c(=O)c4sccc4c23)cc1)C(C)C` (stereo not shown) [Compound 1285, 8-hydroxy-6-methyl-9-(4-(3-methyl-1-(methylamino)butan-2-yl)phenyl)thieno[2,3-c]quinolin-4(5H)-one], in that order: 0.05 µM, 0.23 µM, 0.11 µM, 0.21 µM and 0.28 µM.
For `COc1cc(C)c2[nH]c(=O)c3sccc3c2c1-c1ccc(CCN)c(F)c1` [Compound 1216, 9-(4-(2-aminoethyl)-3-fluorophenyl)-8-methoxy-6-methylthieno[2,3-c]quinolin-4(5H)-one hydrochloride], in that order: 0.057 µM, 0.28 µM, 0.21 µM, 0.46 µM and 0.64 µM.
The like results for `NCCc1ccc(-c2c(O)cc(Br)c3[nH]c(=O)c4sccc4c23)cc1` [Compound 1142, 9-(4-(2-aminoethyl)phenyl)-6-bromo-8-hydroxythieno[2,3-c]quinolin-4(5H)-one hydrochloride] were, in that order, 0.045 µM, 0.21 µM, 0.17 µM, 0.25 µM and 1 µM.

The values are drawn from US8962648B2, “Tricyclic compounds and PBK inhibitors containing the same” (OncoTherapy Science, Inc., priority 2010, dated 2015).
